In the experiment the target is WRN helicase (Werner syndrome protein) (Homo sapiens, UniProt Q14191). As to the kind of experiment: in vitro WRN helicase. Type of experiment: biochemical.

Structures are written as SMILES.

WRN helicase (Werner syndrome protein), sequence (Q14191 2-1432): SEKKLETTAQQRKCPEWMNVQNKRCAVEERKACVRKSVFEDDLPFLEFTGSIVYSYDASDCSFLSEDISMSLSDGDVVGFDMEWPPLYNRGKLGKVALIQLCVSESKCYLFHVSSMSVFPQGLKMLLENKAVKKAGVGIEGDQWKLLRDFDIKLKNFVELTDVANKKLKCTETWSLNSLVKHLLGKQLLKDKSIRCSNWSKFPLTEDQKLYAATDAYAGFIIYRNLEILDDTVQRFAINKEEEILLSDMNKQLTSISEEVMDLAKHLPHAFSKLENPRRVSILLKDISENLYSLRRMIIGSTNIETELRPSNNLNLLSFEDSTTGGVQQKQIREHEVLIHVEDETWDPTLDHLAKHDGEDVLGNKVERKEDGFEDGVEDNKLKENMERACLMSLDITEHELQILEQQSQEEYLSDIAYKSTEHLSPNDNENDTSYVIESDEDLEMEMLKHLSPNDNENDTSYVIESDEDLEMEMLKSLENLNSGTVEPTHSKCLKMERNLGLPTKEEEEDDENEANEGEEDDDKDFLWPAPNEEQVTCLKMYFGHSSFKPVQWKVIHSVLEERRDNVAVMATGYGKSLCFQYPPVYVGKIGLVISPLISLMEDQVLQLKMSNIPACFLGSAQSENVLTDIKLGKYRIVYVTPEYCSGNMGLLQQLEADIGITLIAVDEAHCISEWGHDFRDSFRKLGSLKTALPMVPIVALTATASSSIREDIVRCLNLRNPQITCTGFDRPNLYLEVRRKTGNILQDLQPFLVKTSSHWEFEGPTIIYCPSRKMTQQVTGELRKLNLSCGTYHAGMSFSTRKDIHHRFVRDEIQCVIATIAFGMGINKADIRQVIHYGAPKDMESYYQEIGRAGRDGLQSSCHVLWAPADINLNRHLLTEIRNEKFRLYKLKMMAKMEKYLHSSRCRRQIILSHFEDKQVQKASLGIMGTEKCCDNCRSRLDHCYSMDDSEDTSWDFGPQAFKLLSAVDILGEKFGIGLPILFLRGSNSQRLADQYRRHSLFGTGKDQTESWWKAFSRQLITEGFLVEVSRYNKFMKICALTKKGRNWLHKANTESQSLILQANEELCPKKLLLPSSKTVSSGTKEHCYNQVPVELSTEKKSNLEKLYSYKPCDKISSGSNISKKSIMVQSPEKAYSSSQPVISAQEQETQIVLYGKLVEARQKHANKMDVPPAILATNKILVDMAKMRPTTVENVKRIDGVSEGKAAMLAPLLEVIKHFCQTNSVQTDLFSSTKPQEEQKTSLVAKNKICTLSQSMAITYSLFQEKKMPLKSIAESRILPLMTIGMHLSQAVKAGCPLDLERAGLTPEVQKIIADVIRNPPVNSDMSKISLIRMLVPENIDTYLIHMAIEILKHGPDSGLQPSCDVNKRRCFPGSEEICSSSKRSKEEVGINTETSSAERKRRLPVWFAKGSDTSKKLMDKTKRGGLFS

For orientation: IC50 means the concentration at which inhibition is half-maximal. High values mean lower potency, low ones higher potency. Consider `CC(C)(CN1C(=O)C(Cl)=C(Cl)C1=O)CN1C(=O)C(Cl)=C(Cl)C1=O` [NSC 617145], for which half-maximal inhibition (IC50) was put at 230 nM.
